Measurements: US10301348B2, “Compounds for use in prevention and treatment of neurodegenerative diseases and pain” (Academia Sinica, priority 2013, dated 2019)
Entries after “also recorded” stand apart in the source; their conditions may differ.

Key:
TDP-43 transgenic mice = TDP-43 transgenic mice (ALS): rotarod and grip strength; type: in vivo
human A2AR = human A2AR (Homo sapiens, UniProt P29274); assay: A2AR radioligand binding assay (3H-CGS21680)
Description: (§1) Binding of the indicated compounds to A2A adenosine receptor (A2AR) and an adenosine transporter (ENT1) was characterized using standard binding protocols.
(§2) Radioligand binding assays. Radioligand binding assays were performed by MDS Pharma Services Taiwan (Taipei, Taiwan) using standard binding protocols. For A2AR binding assays, membrane proteins collected from HEK293 cells overexpressing human A2AR were incubated in the reaction buffer [50 mM Tris-HCl (pH 7.4), 10 mM MgCl2, 1 mM EDTA, and 2 U/mL adenosine deaminase] containing ^3H-CGS21680 (50 nM) for 90 min at 25° C. Nonspecific binding was assessed in the presence of 50 μM adenosine-5′-N-ethylcarboxamide. […] Binding assays for adenosine transporters were conducted as described earlier. Membrane fractions collected from the cerebral cortex of Duncan Hartley-derived guinea pigs were incubated with ^3H-labeled 6-[(4-nitrobenzyl)thio]-9-β-D-ribofuranosylpurine (NBTI, 0.5 nM) for 30 min at 25° C. in the incubation buffer containing 50 mM Tris-HCl (pH 7.4). […] Reactions were terminated by filtration over GF/B glass fibers and washing with the reaction buffer.

[1] = biological target: T1, adenosine transporter (ENT1) (Cavia porcellus, UniProt H0V4R7); assay: Adenosine transporter (ENT1) radioligand binding assay (3H-NBTI)
T1 sequence (H0V4R7 1-461): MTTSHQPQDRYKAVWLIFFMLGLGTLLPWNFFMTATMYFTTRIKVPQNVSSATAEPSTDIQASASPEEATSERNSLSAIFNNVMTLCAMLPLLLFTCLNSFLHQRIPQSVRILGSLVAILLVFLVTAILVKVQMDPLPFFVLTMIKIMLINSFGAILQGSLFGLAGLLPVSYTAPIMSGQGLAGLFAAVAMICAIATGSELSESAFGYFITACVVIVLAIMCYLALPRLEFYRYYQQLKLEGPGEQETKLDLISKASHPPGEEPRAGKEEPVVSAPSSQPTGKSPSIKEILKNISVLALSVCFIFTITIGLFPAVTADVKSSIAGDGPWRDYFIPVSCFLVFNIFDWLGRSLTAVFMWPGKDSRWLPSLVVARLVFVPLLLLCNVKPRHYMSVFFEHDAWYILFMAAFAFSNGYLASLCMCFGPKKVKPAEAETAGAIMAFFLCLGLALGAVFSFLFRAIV
Description: as §1, §2

[2] = test system: SCA3 transgenic mice expressing ataxin-3-Q79; assay: SCA3 transgenic mice: rotarod test and NeuN staining of pontine nuclei; conditions: 4-month-old SCA3 transgenic mice, daily oral 1 mg per day
Description: (A) SCA3 transgenic mice were given drinking water containing vehicle (0.2% DMSO) or T1-11 (0.1 mg/ml) beginning at 4 weeks-old.
Behavioral test. Balance and coordination functions of mice were determined by performing rotarod test. Mice were placed on the moving drum of a rotarod apparatus (Accelerating Model, Ugo Basile Biological Research Apparatus), which was then accelerated until mouse fell from the drum onto a plate to stop the timer. Latency to fall was measured in four daily trials over the course of 4 days.
Immunohistochemical staining. Wild-type or SCA3 transgenic mice were anesthetized and perfused transcardially with 4% paraformaldehyde in PBS. Brain was equilibrated in Tissue-Tek embedding medium and frozen in liquid nitrogen. Coronal sections (20 μm) prepared by cryostat sectioning were permeabilized in 0.1% Triton X-100, and incubated at 4° C. for 48 hours with diluted anti-NeuN monoclonal antiserum (Chemicon). Subsequently, sections were washed and incubated with biotinylated horse anti-mouse IgG followed by incubation with avidin-biotin-horseradish peroxidase complex. The sections were then washed and developed in a diaminobenzidine solution. NeuN-positive neurons were visualized and counted by a Leica DM2500 microscope equipped with a Retiga-2000R CCD camera (QImaging) and a 3-axis computer-controlled MAC 600 motorized stage (Ludl Electronics) with the aid of StereoInvestigator software (MBF Bioscience). Each analysis included the processing of 15 brain sections per mouse.

[3] = 3.7, 1.25, 0.5 and 0.1 mg/kg/day, subcutaneous osmotic pump, vs control mice

Sequence of human A2AR (P29274 whole entry): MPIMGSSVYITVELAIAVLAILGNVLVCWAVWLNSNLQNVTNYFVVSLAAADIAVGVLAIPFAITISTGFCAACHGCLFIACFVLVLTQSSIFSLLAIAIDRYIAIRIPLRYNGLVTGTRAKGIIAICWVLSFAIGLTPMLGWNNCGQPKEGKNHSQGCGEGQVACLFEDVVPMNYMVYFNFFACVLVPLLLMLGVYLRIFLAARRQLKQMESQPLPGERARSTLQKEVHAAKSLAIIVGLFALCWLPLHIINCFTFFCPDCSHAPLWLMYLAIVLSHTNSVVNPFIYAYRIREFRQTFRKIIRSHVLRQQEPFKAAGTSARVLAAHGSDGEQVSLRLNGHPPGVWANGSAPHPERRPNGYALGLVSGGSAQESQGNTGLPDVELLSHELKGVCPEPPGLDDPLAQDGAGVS

`OC[C@H]1O[C@@H](n2cnc3c(NCCc4c[nH]c5ccccc45)ncnc32)[C@H](O)[C@@H]1O` [JMF1907, N^6-[2-(indol-3-yl)ethyl]adenosine] was tested, and the grip strength (TDP-43 transgenic mice; [3]) was “statistical significance was reached at all points for all tested doses; also recorded: performed significantly better”, the rotarod performance (TDP-43 transgenic mice; [3]) was “statistical significance was reached at all points for 1.5 & 0.5 mg/kg, from 12-21 wk for 0.1 mg/kg, and 10-12 wk for 3.7 mg/kg; also recorded: performed significantly better” and the “dose showing the greatest benefit” value (TDP-43 transgenic mice; rotarod and grip strength) was 1.25 mg/kg. The Ki (human A2AR) was 4.39 µM, the Ki [1] was 3.47 µM and the “pontine neuronal death (NeuN staining)” value [2] was “significantly prevented neuronal death in the pontine nuclei; also recorded: significantly alleviated pontine neuronal death”. The rotarod performance [2] was “significantly improved rotarod performance”.
